Test results published in patent US6696407B1, “Huntington's disease treatment comprising administering aldose reductase inhibitors to increase striatal CNTF” (The Regents of the University of California, priority 1997, dated 2004).

System: CNTF mRNA
Experiment: Sciatic nerve CNTF mRNA by Northern blot
Assay type: in vivo, rat
Details: control and galactose-fed rats
Experimental: These studies were conducted with the approval of the San Diego Veterans Administration Animal Studies Subcommittee. Female Sprague-Dawley rats (240-300 g; Charles River, San Diego, Calif.) were housed in cages with wire bottoms to reduce contact with urine and feces. Groups were established and fed either a 40% D-galactose diet or a control diet specially formulated by Purina that contained 40% solka floc, a nonnutritive fiber, to balance nutritional intake. All diets contained 100% of the micronutrients required by rats and, with water, were available ad libitum. Each of these diet groups contained animals that were treated with the ARI, Ponalrestat (50 mg/kg), daily by oral gavage. […] Under deep anesthesia, motor nerve conduction velocity (MNCV) was measured in the left hindlimb prior to removal of the sciatic nerve. […]
CNTF mRNA levels in sciatic nerve were obtained by first homogenizing 1 cm segments of nerve on ice for 30 seconds in 4 M guanidine thiocyanate containing 0.1 M β-mercaptoethanol, 25 mM sodium citrate and 0.5% sarcosyl (pH 7.0). […] Autoradiographic bands were quantified using an Ultrascan XL laser densitometer (LKB, Uppsala, Sweden). Ratios of CNTF:GAPDH were determined using optical densities in the linear range for both probes.

Compound: O=C(O)Cc1nn(Cc2ccc(Br)cc2F)c(=O)c2ccccc12 [Ponalrestat, 3-(4-bromo-2-fluorobenzyl)-4-oxo-3H-phthalazin-1-ylacetic acid]
- Level of CNTF message, CNTF:GAPDH ratios: no marked effect
